Where a name gives a salt, the structure may show the parent alone.
Key:
Lettuce seeds = details: cultured in a fertilizer soln. contg. 100 ppm; cited from earlier work
[1] = tested on: germinated sweet corn seeds; experiment: Germinated sweet corn seeds on water plates treated with tetra-sodium salt of EDDS (Example I); format: in vivo, Zea mays L. var. saccharata; details: for germinating-seed stimulating concentration: germinating sweet corn seed, treating solution; for NUMBER OF SEED GERMINATED AND SURVIVED: Sweet corn, 10 seeds per plate
Method: (§1) Styrofoam plates were each charged with 80 ml. water. The plates are titled: (a) the ‘control’ plates; (b) the ‘Treatment 1’ plates; and (c) the ‘Treatment 2’ plates.
(§2) Into the ‘control’ plates, the ‘Treatment 1’ plates and the ‘Treatment 2’ plates were placed, at the loading of 10 seeds per plate, germinated sweet corn seeds, germinated field corn seeds, germinated snap bean, seeds, germinated cantaloupe melon seeds and germinated soy bean seeds.
(§3) The ‘Treatment 1’ plates were then each treated with 0.1 ml. of a 38% aqueous solution of the tetra-sodium salt of EDDS (having the structure as set forth in FIG. 15), or 0.000475 gm./plate, or 475 ppm per plate.
(§4) The ‘Treatment 2’ plates were then each treated with 1 ml. of a 38% aqueous solution of the tetra-odium salt of EDDS, or 0.00475 gm./plate or 4750 ppm per plate.
(§5) No EDDS salt was added to the ‘control’ plate.
(§6) Over a period of 9 days, each plate had distilled water added thereto, as needed, in order to make up for the evaporation of the water during the 9 day period.
(§7) 9 days after the trial commenced, the number of germinated seeds which survived were as set forth in attached Table I.

sweet corn seeds = experiment: Sweet corn seeds on water plates treated with IDS salt alone or with EDDS salt (Example II); format: in vivo, Zea mays L. var. saccharata; details: 9 day period; IDS salt 4630 or 463 ppm per plate, or IDS + EDDS salt mixture (Treatment 3)
Method: Styrofoam plates were each charged with 80 ml. water. The plates are titled: (a) the ‘control’ plates; (b) the ‘Treatment 1’ plates; (c) the ‘Treatment 2’ plates and (d) the ‘Treatment 3’ plates.
Into the ‘control’ plates, the ‘Treatment 1’ plates, the ‘Treatment 2’ plates and the ‘Treatment 3’ plates, were placed, at a loading of 6 seeds per plate, sweet corn seeds, field corn seeds, cantaloupe melon seeds and soy bean seeds.
The ‘Treatment 1’ plates were then each treated with 1 ml. of a 37% solution of the tri-potassium salt of IDS (having the structure as set forth in FIG. 17), or 0.00463 gm./plate or 4630 ppm per plate.
The ‘Treatment 2’ plates were then each treated with 0.1 ml. of a 37% solution of the tri-potassium salt of IDS, or 0.000463 gm./plate, or 463 ppm per plate.
The ‘Treatment 3’ plates were then each treated with a mixture 0.5 ml. of a 37% solution of the tri-potassium salt of IDS and 0.5 ml. of a 38% solution of the tetra-sodium salt of EDDS, or 0.000231 gm/plate of the IDS salt and 0.000238 gm./plate of the EDDS salt.
No EDDS or IDS salts were added to the control plate.
Over a period of 9 days, each plate had distilled water added thereto, as needed, in order to make up for the evaporation of water during the 9 day period.
9 days after the trial commenced, the number of germinated seeds which survived were as set forth in attached Table II.

Mexican Heather plants = experiment: Soil application of IDS and/or EDDS free acids to Mexican heather plants (Example IV); format: in vivo, Cuphea hyssopifolia Kunth.; details: 200 ppm free acid; for root mass versus vegetative growth: within 10 mm of each plant
Method: Four sets of six Mexican Heather plants each were placed on trays without transplanting. 0.2 gm/liter stock solutions of IDS and EDDS free acids prepared according to Example III, supra, were used, in three different treatments (EDDS alone, IDS alone and a 50:50 mixture of EDDS and IDS) to treat the three sets of plants as set forth in Table IV, attached, by placing the solutions into the soil within 10 mm. of each of the plants. A fourth set was treated with distilled water (the ‘control’ set).

[2] = tested on: germinated field corn seeds; experiment: Germinated field corn seeds on water plates treated with tetra-sodium salt of EDDS (Example I); format: in vivo, Zea mays L.; details: after 9 days; for NUMBER OF SEED GERMINATED AND SURVIVED: Field corn, 10 seeds per plate
Method: as §1, §2, §3, §4, §5, §6, §7

[3] = tested on: germinated snap bean seeds; experiment: Germinated snap bean seeds on water plates treated with tetra-sodium salt of EDDS (Example I); format: in vivo, Phaseolus vulgaris L.; details: Snap beans, 10 seeds per plate, after 9 days
Method: as §1, §2, §3, §4, §5, §6, §7

[4] = tested on: germinated cantaloupe melon seeds; experiment: Germinated cantaloupe melon seeds on water plates treated with tetra-sodium salt of EDDS (Example I); format: in vivo; details: 10 seeds per plate, after 9 days
Method: as §1, §2, §3, §4, §5, §6, §7

[5] = Treatment 1 (EDDS at 0.1 ml Per liter; 475 ppm per plate)
[6] = Treatment 2 (EDDS at 1 ml Per liter; 4750 ppm per plate)

**Q.** Which “plant growth of lettuce” value (Lettuce seeds) does the source give for `O=C(O)C[C@H](NCCN[C@@H](CC(=O)O)C(=O)O)C(=O)O` [S,S-ethylenediamine-N,N-disuccinic acid] here?
**A.** good plant growth

**Q.** With `O=C(O)CC(N[C@@H](CC(=O)O)C(=O)O)C(=O)O` (stereo partly shown) [tri-potassium salt of IDS, N-(1,2-dicarboxyethyl)aspartic acid] as the compound, how does the germinating-seed stimulating concentration [1] read?
**A.** about 1×10^−4 gram moles per liter

**Q.** And the “germination and uniformity of seedling growth, sweet corn seeds” value (sweet corn seeds)?
**A.** germinated and the resulting seedlings started to grow more uniformly

**Q.** For `O=C(O)CC(NCCNC(CC(=O)O)C(=O)O)C(=O)O` (mixture of isomers) [EDDS free acid, N,N′-1,2-ethanediylbis-aspartic acid], which “leaf position and internode lengths at the end of the experiment” value (Mexican Heather plants) is on record?
**A.** the plant leaves are lower on the main stem and internode lengths are shortened

**Q.** And the “root mass versus vegetative growth” value (Mexican Heather plants)?
**A.** promoted a greater root mass at the expense of vegetative growth

**Q.** What does the source list for `O=C(O)CC(NCCNC(CC(=O)O)C(=O)O)C(=O)O` (mixture of isomers) [tetra-sodium salt of EDDS, N,N′-1,2-ethanediylbis-aspartic acid]?
**A.** NUMBER OF SEED GERMINATED AND SURVIVED ([1]; Treatment 1 (EDDS at 0.1 ml Per liter; 475 ppm per plate), after 9 days): 10; NUMBER OF SEED GERMINATED AND SURVIVED ([1]; Treatment 2 (EDDS at 1 ml Per liter; 4750 ppm per plate), after 9 days): 7; germination and growth of the germinated sweet corn seeds, as compared with the control ([1]; Treatment 1 plates (475 ppm per plate), after 9 days): uniform germination and growth; germination and growth of the sweet corn ([1]; Treatment 2 plates (4750 ppm per plate), after 9 days): inhibition of the germination and growth; action on germinating seed ([1]; at a concentration of about 10×10^−4 gram moles per liter): acts as a germinating seed growth regulator; germinating-seed stimulating concentration [1]: about 1×10^−4 gram moles per liter; NUMBER OF SEED GERMINATED AND SURVIVED [2, 5]: 9; NUMBER OF SEED GERMINATED AND SURVIVED [2, 6]: 4; germination and growth of the field corn ([2]; Treatment 2 plates (4750 ppm per plate)): inhibition of the germination and growth; NUMBER OF SEED GERMINATED AND SURVIVED [3, 5]: 5; NUMBER OF SEED GERMINATED AND SURVIVED [3, 6]: 1; NUMBER OF SEED GERMINATED AND SURVIVED [4, 5]: 1; NUMBER OF SEED GERMINATED AND SURVIVED [4, 6]: 0

**Q.** For `O=C(O)CC(N[C@@H](CC(=O)O)C(=O)O)C(=O)O` (stereo partly shown) [IDS free acid, N-(1,2-dicarboxyethyl)aspartic acid], which “root mass versus vegetative growth” value (Mexican Heather plants) is on record?
**A.** promoted a greater root mass at the expense of vegetative growth, although to a significantly lesser extent than done using EDDS

Reference: patent publication US6444614B2, “Aspartic acid derivative-containing compositions and use thereof in stimulating and/or regulating plant and plant precursor growth” (LidoChem Inc., priority 2000, dated 2002)
